This is an account of results in ChEMBL document CHEMBL4834455, “Sesquiterpenes and Steroids from an Endophytic Eutypella scoparia” (J Nat Prod, 2021).

Data set [1] can be described thus: Cytotoxicity against African green monkey MARC145 cells assessed as cell growth inhibition measured after 48 hrs by MTT assay. The class given is cell-based. The note with it: chlorocebus aethiops, marc145, 48 h.
In data set [2] the test system is MCF7. The data set is described as follows: Antiproliferative activity against human MCF7 cells assessed as cell growth inhibition measured after 48 hrs by MTT assay. The data set is classed as functional, cell-based.
The test system of data set [3] is HeLa. The data set is described as follows: Antiproliferative activity against human HeLa cells assessed as cell growth inhibition measured after 48 hrs by MTT assay. The class given is functional, cell-based.
Data set [4] has as its system MDA-MB-231. In words: Antiproliferative activity against human MDA-MB-231 cells assessed as cell growth inhibition measured after 48 hrs by MTT assay. The class given is functional, cell-based.
In data set [5] the test system is Staphylococcus aureus. The data set is described as follows: Antibacterial activity against Staphylococcus aureus CMCC26003 assessed as bacterial growth inhibition by microbroth dilution method. The class given is functional.
Data set [6] concerns Staphylococcus aureus. The data set is described as follows: Antibacterial activity against methicillin-resistant Staphylococcus aureus JCSC3063 assessed as bacterial growth inhibition by microbroth dilution method. The class given is functional.

The source made the active and inactive calls. The calls are words filed in the database; no cut-off is given here.

In the case of `CC1=CCC[C@@]2(C)C[C@H]3OC(=O)[C@@H](C)[C@@H]3C[C@H]12`, the Activity result in data set [1] was “Non-Toxic”. For the same compound, the result in data set [2], in data set [3], in data set [4], in data set [5] and in data set [6] was inactive.

On to `CC1=CCC[C@H]2CC3=C(CO)C(=O)OC3=C[C@]12C`, for which, in data set [1], the Activity result is recorded as “Non-Toxic”. For the same compound, the result in data set [2], in data set [3], in data set [4], in data set [5] and in data set [6] was inactive.

For `CC1=C2C[C@@H](C(C)(C)O)CC[C@]2(C)CCC1=O`, the Activity entry in data set [1] is “Non-Toxic”. Besides, the result in data set [2], in data set [3], in data set [4], in data set [5] and in data set [6] was inactive.

Take `C=C(C(C)C)[C@H](O)C[C@@H](C)[C@H]1CC[C@@]2(C)C3=C(CC[C@]12C)[C@@]1(C)CCC(=O)C(C)(C)[C@@H]1CC3`: in data set [1], the Activity entry is given as “Non-Toxic”. The result in data set [2], in data set [3], in data set [4], in data set [5] and in data set [6] was inactive.

Consider `CC[C@H](CC[C@@H](C)[C@H]1CC[C@H]2[C@@H]3CC=C4C[C@@H](O)CC[C@]4(C)[C@H]3CC[C@]12C)C(C)C` [BETA-SITOSTEROL], for which the Activity entry in data set [1] is given as “Non-Toxic”. For the same compound, the result in data set [2], in data set [3], in data set [4], in data set [5] and in data set [6] was inactive.

As to `CC1=CC(=O)C[C@@]2(C)CC[C@H](C(C)CO)C[C@H]12` (some centres not stated), the Activity entry in data set [1] is given as “Non-Toxic”. The result in data set [2], in data set [3], in data set [4], in data set [5] and in data set [6] was inactive.

For the compound `CC1=CC(=O)C[C@@]2(C)CC[C@H](C(C)(C)O)C[C@H]12`, in data set [1], the Activity result is “Non-Toxic”. Also, the result in data set [2], in data set [3], in data set [4], in data set [5] and in data set [6] was inactive.

With `CC(=O)OCC(=O)[C@H]1CC[C@]2(C)CCC=C(C)[C@H]2C1`, the Activity entry in data set [1] was “Non-Toxic”. The outcome in data set [2], in data set [3], in data set [4], in data set [5] and in data set [6] was inactive.

As to `CC(C)[C@H](C)/C=C/[C@@H](C(=O)O)[C@H]1CCC2=C3C=C[C@H]4CC(=O)CC[C@]4(C)[C@H]3CC[C@@]21C`, in data set [1], the Activity result is “Non-Toxic”. Besides, the result in data set [2], in data set [3], in data set [4], in data set [5] and in data set [6] was inactive.

For `CC(C)=CCC/C(C)=C/CC/C(C)=C/CC/C=C(\C)CC/C=C(\C)CCC=C(C)C` [SQUALENE], the Activity entry in data set [1] was “Non-Toxic”. In addition, the result in data set [2], in data set [3], in data set [4], in data set [5] and in data set [6] was inactive.

For `CC(C)[C@@H](C)/C=C/[C@@H](C)[C@H]1CCC2=C3C=CC4=CC(=O)CC[C@]4(C)[C@H]3CC[C@@]21C`, the Activity entry in data set [1] is recorded as “Non-Toxic”. Further, the outcome in data set [2], in data set [3], in data set [4], in data set [5] and in data set [6] was inactive.

On to `CC1=CCCC2(C)CC[C@H](C(C)CO)C[C@H]12` (single isomer, unassigned), for which the Activity entry is “Non-Toxic” in data set [1] and 6.3 µg/mL in data set [5]. Further, the outcome in data set [2], in data set [3] and in data set [4] was inactive.

Turning to `C[C@H]1CCC(=O)[C@@]2(C)CC=C(C(C)(C)O)C[C@H]12`, in data set [1], the Activity entry was “Non-Toxic”. Also, the result in data set [2], in data set [3], in data set [4], in data set [5] and in data set [6] was inactive.

As for `C=C1C[C@@H](O)C[C@@]2(C)CC[C@H](C(C)(C)O)C[C@H]12`, the Activity result in data set [1] is recorded as “Non-Toxic”. Further, the result in data set [2], in data set [3], in data set [4], in data set [5] and in data set [6] was inactive.

In the case of `C[C@H]1CCC(=O)[C@@]2(C)CC[C@H](C(C)(C)O)[C@H](O)[C@H]12`, in data set [1], the Activity entry is reported as “Non-Toxic”. Further, the result in data set [2], in data set [3], in data set [4], in data set [5] and in data set [6] was inactive.

As to `C[C@H]1CCC(=O)[C@@]2(C)CCC(C(C)(C)O)=C[C@H]12`, the Activity result in data set [1] is reported as “Non-Toxic”. Moreover, the outcome in data set [2], in data set [3], in data set [4], in data set [5] and in data set [6] was inactive.

Regarding `C=C1CCC[C@@]2(C)CC[C@H](C(C)(C)O)C[C@H]12`, the Activity result in data set [1] is given as “Non-Toxic”. In addition, the outcome in data set [2], in data set [3], in data set [4], in data set [5] and in data set [6] was inactive.

Take `C=C1CCC(=O)[C@@]2(C)CC[C@H](C(C)(C)O)C[C@H]12`: the Activity result in data set [1] is given as “Non-Toxic”. The outcome in data set [2], in data set [3], in data set [4], in data set [5] and in data set [6] was inactive.
